Data on 22 compounds can be found in patent US11613531B2, “Inhibitors of RHO associated coiled-coil containing protein kinase” (Kadmon Corporation, LLC, priority 2017, dated 2023).

Molecules are shown by their SMILES. pIC50: −log10 of the molar value. Some results are limits rather than exact numbers.

Assay [1] concerns the target Recombinant ROCK2 (amino acids 1-552) (Homo sapiens (Human), UniProt O75116). Description: Z′-Lyte kinase assay, ROCK2. The assay is classed as biochemical. Particulars: for inhibition at 0.5 µM: 0.5 μM compound. An outline of the steps: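 IC50s derive from nonlinear curve fits over a 9-point, 2-fold dilution series, with single-point inhibition at 1 μM expressed relative to DMSO. Activity of truncated human ROCK1 (residues 1-535) and ROCK2 (residues 1-552) measured with the Z′-Lyte kinase format.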

Assay [2] relates to ppMlc (T18/S19) levels in A7R5 cells. Put plainly: A7R5 in-cell ELISA (pMLC). It is filed as cell-based, Rat. Particulars: Rattus norvegicus, A7R5, A7R5 cells; for inhibition at 1 µM: 1 μM compound, read-out: pMLC % inh A7R5 @ [conc]. An outline of the steps:
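Cellular IC50 came from a nonlinear regression fit of ppMlc (T18/S19) signal, read by colorimetric in-cell ELISA on fixed cells. Rat A7R5 aortic smooth muscle cells had been exposed for 90 min to compounds in 9-point 2-fold serial dilution, 24 h after seeding.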

Assay [3] has as its system human ACTA2 gene promoter luciferase reporter in NIH3T3 cells. Put plainly: NIH3T3 Acta2-promoter driven-luciferase assay. The assay is classed as cell-based. To be noted: NIH3T3, 24 h, with TGFβ1, 24 hr; read-out: NIH3T3 Acta2-luc, IC50. The procedure: NIH3T3 Cells Acta2-Promoter Driven-Luciferase Assay.
A NIH3T3 cell line stably expressing a luciferase reporter driven by the human ACTA2 gene promoter (−1000-1 bp) was established (NIH3T3-Acta2-luciferase). The cells were plated to confluence and treated with the test compounds plus TGFβ1 for 24 hr. Cells were then lysed and luciferase activity was measured using the LightSwitch luciferase kit from Active Motif.
In vitro activities for the compounds were measured with Z′-lyte kinase kit (ThermoFisher Scientific). The percent inhibition rate was calculated by normalizing the kinase activity value obtained with 1 μM compound treatment against DMSO control value and then applied to the formula, [1-(compound/DMSO)]×100%. IC50s were calculated using the nonlinear regression curve fit function of the GraphPad Prism software with kinase activities data measured with 9 points 2-fold serial dilution of compounds treatment. In cell pMLC IC50s were calculated with data obtained from A7R5 cell experiments. A7R5 cells were treated with 9 points 2-fold serial dilution of compounds and ppMlc (T18/S19) levels were determined to calculate cellular IC50 values of the compounds using the nonlinear regression curve fit function of the GraphPad Prism software. NIH3T3 cells stably expressing ACTA2-promoter-driven-luciferase were applied to measure ROCK compounds functional IC50s in cells. Cells were plated in 96 well plates to confluence and treated with 9 points serial dilution of compounds in combination with TGFβ1 for 24 hr. Luciferase activities were measured and compound's IC50s were calculated using the nonlinear regression curve fit function of the GraphPad Prism software.
ROCK inhibitors can be effectively rank ordered by ACTA2-promoter-driven-luciferase reporter cell assay. NIH3T3 cells stably expressing ACTA2-promoter-driven-luciferase were plated in 96 well plates to confluence and treated with 9 points serial dilution of compounds in combination with TGFβ1 for 24 hr. Luciferase activities were measured and compound's IC50s were calculated. By this assay multiple compounds of the invention gave IC50s under 200 nM.

Where [4] appears, read: read-out: ROCK2 % inh. @ [conc].

Sequence of Recombinant ROCK2 (amino acids 1-552) (O75116 1-552): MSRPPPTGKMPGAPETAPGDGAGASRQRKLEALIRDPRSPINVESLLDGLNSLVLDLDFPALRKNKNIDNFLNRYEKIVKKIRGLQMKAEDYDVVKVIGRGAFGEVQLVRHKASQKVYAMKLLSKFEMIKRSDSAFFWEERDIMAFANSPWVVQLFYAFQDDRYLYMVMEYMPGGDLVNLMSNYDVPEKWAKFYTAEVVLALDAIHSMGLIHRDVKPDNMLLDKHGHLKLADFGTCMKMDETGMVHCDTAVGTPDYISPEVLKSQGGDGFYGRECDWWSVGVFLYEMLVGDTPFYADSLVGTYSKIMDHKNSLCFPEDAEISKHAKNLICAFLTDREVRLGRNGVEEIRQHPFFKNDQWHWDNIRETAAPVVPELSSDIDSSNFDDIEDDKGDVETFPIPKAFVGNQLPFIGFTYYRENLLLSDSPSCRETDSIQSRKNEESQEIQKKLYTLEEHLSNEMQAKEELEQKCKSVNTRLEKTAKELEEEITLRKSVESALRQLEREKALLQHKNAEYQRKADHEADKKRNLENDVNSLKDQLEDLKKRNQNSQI

For the compound `Clc1cnc(N2C3CNCC2C3)nc1Nc1ccc2[nH]ncc2c1` [Example 222, N-(2-(3,6-diazabicyclo[3.1.1]heptan-6-yl)-5-chloropyrimidin-4-yl)-1H-indazol-5-amine], the pIC50 was 8.31 in assay [1] and 6.28 in assay [3]. In addition, the inhibition at 1 µM in assay [1] (1 μM compound, read-out: ROCK2 % inh. @ [conc]) is 102%; in assay [2], 58.2%. In assay [2], the half-maximal inhibitory concentration (IC50) was determined as 122 nM.

`Cc1nc(N2CC3CC2CN3)nc(Nc2ccc3[nH]ncc3c2)c1F` (centres unmarked) [Example 277, N-(2-(2,5-diazabicyclo[2.2.1]heptan-2-yl)-5-fluoro-6-methylpyrimidin-4-yl)-1H-indazol-5-amine]: in assay [1], the negative-log IC50 (pIC50) is 8.43. Moreover, in assay [2], the IC50 was 45 nM and the inhibition at 1 µM came out at 63.4%. Also, the negative-log IC50 (pIC50) in assay [3] is 6.61.

Turning to `c1cc2[nH]ncc2cc1Nc1nc(N2C3CCC2CNC3)nc2c1COC2` [Example 278, 2-(3,8-diazabicyclo[3.2.1]octan-8-yl)-N-(1H-indazol-5-yl)-5,7-dihydrofuro[3,4-d]pyrimidin-4-amine], the pIC50 in assay [1] is 8.18. In assay [2], the IC50 was 199 nM and the inhibition at 1 µM stood at 59.9%. In addition, in assay [3], the negative-log IC50 (pIC50) is 5.84.

For `Fc1cc2[nH]ncc2cc1Nc1nc(N2C3CNCC2C3)ncc1Cl` [Example 295, N-(2-(3,6-diazabicyclo[3.1.1]heptan-6-yl)-5-chloropyrimidin-4-yl)-6-fluoro-1H-indazol-5-amine], the pIC50 in assay [1] is 7.35; in assay [3], 5.66. Besides, the inhibition at 0.5 µM in assay [1] (setting [4]) was determined as 98%. Further, the IC50 in assay [2] was determined as 646 nM.

Take `Fc1cc2[nH]ncc2cc1Nc1nc(N2C3CCC2CNC3)ncc1Cl` [Example 296, N-(2-(3,8-diazabicyclo[3.2.1]octan-8-yl)-5-chloropyrimidin-4-yl)-6-fluoro-1H-indazol-5-amine]: the pIC50 in assay [1] is 6.96; in assay [3] it was 5.51. The inhibition at 0.5 µM in assay [1] (setting [4]) turned out to be 90%. Besides, in assay [2], the half-inhibitory concentration (IC50) is 860 nM.

With `COc1cc2[nH]ncc2cc1Nc1nc(N2C3CNCC2C3)ncc1Cl` [Example 297, N-(2-(3,6-diazabicyclo[3.1.1]heptan-6-yl)-5-chloropyrimidin-4-yl)-6-methoxy-1H-indazol-5-amine], the pIC50 was 7.08 in assay [1] and 5.42 in assay [3]. The inhibition at 0.5 µM in assay [1] (setting [4]) came out at 87%. In addition, in assay [2], the IC50 was 1430 nM.

As to `FC(F)(F)c1cnc(N2C3CCC2CNC3)nc1Nc1ccc2[nH]ncc2c1` [Example 298, N-(2-(3,8-diazabicyclo[3.2.1]octan-8-yl)-5-(trifluoromethyl)pyrimidin-4-yl)-1H-indazol-5-amine], the pIC50 was 7.12 in assay [1] and less than 5.30 in assay [3]. In assay [2], the IC50 was 1520 nM.

Consider `CN1CCc2nc(N3C4CCC3CNC4)nc(Nc3ccc4[nH]ncc4c3)c2C1` [Example 299, 2-(3,8-diazabicyclo[3.2.1]octan-8-yl)-N-(1H-indazol-5-yl)-6-methyl-5,6,7,8-tetrahydropyrido[4,3-d]pyrimidin-4-amine], for which the negative-log IC50 (pIC50) in assay [1] was 7.47; in assay [3], less than 5.00. In addition, the inhibition at 0.5 µM in assay [1] (setting [4]) came to 70%. In addition, the IC50 in assay [2] was 1200 nM.

`c1cc(-c2cn[nH]c2)ccc1Nc1nc(N2C3CNCC2C3)nc2c1CNC2` [Example 300, N-(4-(1H-pyrazol-4-yl)phenyl)-2-(3,6-diazabicyclo[3.1.1]heptan-6-yl)-6,7-dihydro-5H-pyrrolo[3,4-d]pyrimidin-4-amine]: in assay [1] (setting [4]), the inhibition at 0.5 µM worked out at 68%. Also, in assay [2], the IC50 is greater than 10000 nM. In assay [3], the pIC50 is less than 5.00.

As for `Cc1nc(N2C3CNCC2C3)nc(Nc2ccc3[nH]ncc3c2)c1F` [Example 301, N-(2-(3,6-diazabicyclo[3.1.1]heptan-6-yl)-5-fluoro-6-methylpyrimidin-4-yl)-1H-indazol-5-amine], the negative-log IC50 (pIC50) was 9.40 in assay [1] and 6.75 in assay [3]. Also, the inhibition at 0.5 µM in assay [1] (setting [4]) was 100%. In addition, the 50% inhibitory concentration (IC50) in assay [2] turned out to be 16 nM.

On to `FC(F)(F)c1cnc(N2C3CNCC2C3)nc1Nc1ccc2[nH]ncc2c1` [Example 304, N-(2-(3,6-diazabicyclo[3.1.1]heptan-6-yl)-5-(trifluoromethyl)pyrimidin-4-yl)-1H-indazol-5-amine], for which the negative logarithm of the IC50 (pIC50) was 7.77 in assay [1] and 6.01 in assay [3]. Further, the half-maximal inhibitory concentration (IC50) in assay [2] stood at 413 nM.

As to `COc1cc2[nH]ncc2cc1Nc1nc(N2C3CCC2CNC3)ncc1Cl` [Example 305, N-(2-(3,8-diazabicyclo[3.2.1]octan-8-yl)-5-chloropyrimidin-4-yl)-6-methoxy-1H-indazol-5-amine], the figures for the negative-log IC50 (pIC50) in assay [1] and in assay [3] were 6.80 and 5.42, respectively. The inhibition at 0.5 µM in assay [1] (setting [4]) worked out at 83%. Further, in assay [2], the half-inhibitory concentration (IC50) is 1410 nM.

With `c1cc2[nH]ncc2cc1Nc1nc(N2C3CNCC2C3)nc2c1COCC2` [Example 307, 2-(3,6-diazabicyclo[3.1.1]heptan-6-yl)-N-(1H-indazol-5-yl)-7,8-dihydro-5H-pyrano[4,3-d]pyrimidin-4-amine], the negative-log IC50 (pIC50) in assay [1] was 8.59; in assay [3], 5.69. Also, the IC50 in assay [2] turned out to be 977 nM.

Regarding `c1cc2[nH]ncc2cc1Nc1nc(N2C3CNCC2C3)ncc1C1CC1` [Example 308, N-(2-(3,6-diazabicyclo[3.1.1]heptan-6-yl)-5-cyclopropylpyrimidin-4-yl)-1H-indazol-5-amine], the pIC50 was 7.82 in assay [1] and 5.91 in assay [3]. In addition, the IC50 in assay [2] was 377 nM.

Regarding `c1cc2[nH]ncc2cc1Nc1nc(N2C3CCC2CNC3)ncc1C1CC1` [Example 309, N-(2-(3,8-diazabicyclo[3.2.1]octan-8-yl)-5-cyclopropylpyrimidin-4-yl)-1H-indazol-5-amine], the pIC50 in assay [1] was 6.93; in assay [3] it was 5.48. For the same compound, the IC50 in assay [2] stood at 917 nM.

For `c1cc2[nH]ncc2cc1Nc1nc(N2C3CNCC2C3)nc2c1CNC2` [Example 310, 2-(3,6-diazabicyclo[3.1.1]heptan-6-yl)-N-(1H-indazol-5-yl)-6,7-dihydro-5H-pyrrolo[3,4-d]pyrimidin-4-amine], the pIC50 was 8.42 in assay [1] and less than 5.30 in assay [3]. The IC50 in assay [2] is greater than 5000 nM.

On to `Cc1c(Cl)nc(N2C3CCC2CNC3)nc1Nc1ccc2[nH]ncc2c1` [Example 315, N-(2-(3,8-diazabicyclo[3.2.1]octan-8-yl)-6-chloro-5-methylpyrimidin-4-yl)-1H-indazol-5-amine], for which the negative-log IC50 (pIC50) in assay [1] is 7.59; in assay [3], 5.71. Also, in assay [2], the 50% inhibitory concentration (IC50) came out at 168 nM.

On to `Fc1cnc(N2CC3CNCC(C2)O3)nc1Nc1ccc2[nH]ncc2c1` [Example 324, N-(2-((1,5)-9-oxa-3,7-diazabicyclo[3.3.1]nonan-3-yl)-5-fluoropyrimidin-4-yl)-1H-indazol-5-amine], for which the pIC50 in assay [1] is 6.57; in assay [3], 5.86. The inhibition at 0.5 µM in assay [1] (setting [4]) was 71%. Further, in assay [2], the IC50 was found to be 2080 nM.

`CCN(C)c1cc(Nc2ccc3[nH]ncc3c2)nc(N2C3CCC2CNC3)n1` [Example 332, 2-(3,8-diazabicyclo[3.2.1]octan-8-yl)-N4-ethyl-N6-(1H-indazol-5-yl)-N4-methylpyrimidine-4,6-diamine]: the pIC50 was 8.92 in assay [1] and 7.10 in assay [3]. Also, the half-maximal inhibitory concentration (IC50) in assay [2] was found to be 18 nM.

Regarding `Cc1c(C#N)nc(N2C3CCC2CNC3)nc1Nc1ccc2[nH]ncc2c1` [Example 333, 6-((1H-indazol-5-yl)amino)-2-(3,8-diazabicyclo[3.2.1]octan-8-yl)-5-methylpyrimidine-4-carbonitrile], the pIC50 was 7.36 in assay [1] and 5.80 in assay [3]. Moreover, the IC50 in assay [2] stood at 577 nM.

In the case of `CNC1CC2CC1CN2c1ncc(F)c(Nc2ccc3[nH]ncc3c2)n1` (centres unmarked) [Example 334, N-(5-fluoro-2-(5-(methylamino)-2-azabicyclo[2.2.1]heptan-2-yl)pyrimidin-4-yl)-1H-indazol-5-amine], the figures for the negative-log IC50 (pIC50) in assay [1] and in assay [3] were 6.92 and 5.78, respectively. Moreover, the IC50 in assay [2] turned out to be 889 nM.

Regarding `FC(F)(F)c1nc(N2C3CCC2CNC3)nc(Nc2ccc3[nH]ncc3c2)c1Cl` [Example 340, N-(2-(3,8-diazabicyclo[3.2.1]octan-8-yl)-5-chloro-6-(trifluoromethyl)pyrimidin-4-yl)-1H-indazol-5-amine], the negative logarithm of the IC50 (pIC50) in assay [1] was 7.70; in assay [3], 6.05. Further, the IC50 in assay [2] was determined as 362 nM.
